# From the NIST ThermoML archive (doi:10.1021/acs.jced.6b00606)
# ± gives the expanded uncertainty stated by the source.
# How the values were obtained:
# [1] = Liquid; for speed of sound: 100 kPa, Frequency=3 MHz, Sing-around technique in a fixed-path interferometer; for mass density: 101.33 kPa, Vibrating tube method
# [2] = molar heat capacity at constant pressure; settings: 101.33 kPa, Liquid, Extra sensitive DSC
speed of sound ([1]; 293.15 K),mass density ([1]; 293.15 K),speed of sound ([1]; 298.15 K),mass density ([1]; 298.15 K),speed of sound ([1]; 303.15 K),mass density ([1]; 303.15 K),speed of sound ([1]; 308.15 K),mass density ([1]; 308.15 K),molar heat capacity at constant pressure ([2]; 293.15 K),molar heat capacity at constant pressure ([2]; 298.15 K),molar heat capacity at constant pressure ([2]; 303.15 K),molar heat capacity at constant pressure ([2]; 308.15 K),SMILES
1367.8 ± 1.5 m/s,1033.59 ± 1 kg/m3,1346 ± 1.5 m/s,1027.94 ± 1 kg/m3,1324.4 ± 1.5 m/s,1022.28 ± 1 kg/m3,1302.5 ± 1.5 m/s,1016.59 ± 1 kg/m3,151.62 ± 5.9 J/K/mol,152.76 ± 5.9 J/K/mol,153.92 ± 6 J/K/mol,155.09 ± 6 J/K/mol,"C1COCCO1 [1,4-dioxane]"
1477.3 ± 1.6 m/s,951.85 ± 1 kg/m3,1455 ± 1.6 m/s,947.62 ± 1 kg/m3,1432.4 ± 1.6 m/s,943.38 ± 1 kg/m3,1409.6 ± 1.6 m/s,939.14 ± 1 kg/m3,201.11 ± 7.8 J/K/mol,202.01 ± 7.8 J/K/mol,203.21 ± 7.9 J/K/mol,204.51 ± 7.9 J/K/mol,O=C1CCCCCC1 [cycloheptanone]
1431.2 ± 1.3 m/s,947.38 ± 1 kg/m3,1415.5 ± 1.3 m/s,942.92 ± 1 kg/m3,1395.1 ± 1.3 m/s,938.07 ± 1 kg/m3,1375.1 ± 1.3 m/s,933.19 ± 1 kg/m3,176.17 ± 6.8 J/K/mol,178.27 ± 6.9 J/K/mol,180.38 ± 7 J/K/mol,182.46 ± 7.1 J/K/mol,O=C1CCCCC1 [cyclohexanone]
1293 ± 1.4 m/s,884.23 ± 1 kg/m3,1269.7 ± 1.4 m/s,879.09 ± 1 kg/m3,1246.7 ± 1.4 m/s,873.91 ± 1 kg/m3,1224.3 ± 1.4 m/s,868.75 ± 1 kg/m3,148.03 ± 5.7 J/K/mol,149.68 ± 5.8 J/K/mol,151.18 ± 5.9 J/K/mol,153.01 ± 5.9 J/K/mol,C1CCOCC1 [tetrahydropyran]
